The values that follow come from publication PMC6934184, “Selective DNA-PKcs inhibition extends the therapeutic index of localized radiotherapy and chemotherapy” (The Journal of Clinical Investigation, 2019).

The target of the assay is T1, LYN A (Homo sapiens, UniProt P07948).
T1 construct: purchased Thermo Fisher Scientific (Life Technologies) SelectScreen
The experiment in a line: SelectScreen Z'LYTE. Format: biochemical. The procedure, abridged: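 Compound tested in SelectScreen activity assays, Z'LYTE for CSF1R, CDK1/cyclin B and MAP2K6 and Adapta for CAMK1. ATP for CAMK1 was listed as 10, and Km app was used for CSF1R. Results are expressed in percent.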

The inhibition is the percentage by which the read-out fell short of the control. A low value points to little suppression.

T1 sequence (P07948 whole entry): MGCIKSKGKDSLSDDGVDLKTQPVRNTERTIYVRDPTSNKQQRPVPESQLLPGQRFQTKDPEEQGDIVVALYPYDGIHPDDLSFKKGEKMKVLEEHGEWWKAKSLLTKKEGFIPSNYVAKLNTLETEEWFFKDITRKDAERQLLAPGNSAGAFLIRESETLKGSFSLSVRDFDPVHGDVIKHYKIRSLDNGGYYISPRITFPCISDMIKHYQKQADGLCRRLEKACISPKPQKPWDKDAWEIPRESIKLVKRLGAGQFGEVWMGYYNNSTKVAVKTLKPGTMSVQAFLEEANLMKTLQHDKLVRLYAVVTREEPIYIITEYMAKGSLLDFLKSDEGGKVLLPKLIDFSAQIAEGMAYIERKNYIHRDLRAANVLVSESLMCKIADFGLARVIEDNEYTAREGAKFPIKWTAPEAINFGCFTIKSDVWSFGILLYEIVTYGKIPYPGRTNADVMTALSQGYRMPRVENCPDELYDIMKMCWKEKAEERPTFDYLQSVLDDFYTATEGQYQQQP

On to `CN(C(=O)CN1CCOCC1)c1ccc2sc3c(-c4cccc5c(=O)cc(N6CC7CCC(C6)O7)oc45)cccc3c2c1` [NU5455], for which at 1 µM the inhibition was 15.2%.
